Source: article PMC9030691, “Toxicokinetics of β-Amanitin in Mice and In Vitro Drug–Drug Interaction Potential” (Pharmaceutics, 2022)
“And” between values parts separate entries of the source, which are not always exact repeats. Equal values may be shown once. “Also recorded” adds a separate entry of the source. Read-outs that look alike come from different tables or passages of the source.

Key:
mice = test: Death or toxicity observed during the toxicokinetic study; type: in vivo; conditions: male ICR mice
Procedure: (§1) β-amanitin was dissolved in water and administered by iv bolus injection into the tail vein of mice at doses of 0.2 (n = 8), 0.4 (n = 6), and 0.8 (n = 7) mg/kg. Blood samples (approximately 15 μL) were collected from the retro-orbital plexus under light anesthesia with isoflurane at 0.033, 0.083, 0.25, 0.5, 0.75, 1, 1.5, 2, 3, 4, 6, and 8 h after drug administration.
β-amanitin was dissolved in water and administered to mice by gavage at doses of 2 (n = 7), 5 (n = 9), and 10 (n = 7) mg/kg. Blood samples (approximately 15 μL) were collected from the retro-orbital plexus under light anesthesia with isoflurane at 0.033, 0.083, 0.166, 0.25, 0.5, 0.75, 1, 1.5, 2, 4, 6, and 8 h after drug administration. Plasma samples (5 μL each) were harvested by centrifugation at 13,000× g for 3 min at 4 °C and stored at −80 °C until analysis.

[1] = Toxicokinetics after intravenous injection in mice; type: in vivo; conditions: male ICR mice; for MRT / Vd / clearance / half-life / AUC(0-inf) / AUC(0-t) / C0: mouse, mean ± SD; for MRT: AUMC/AUC; for Vd: CLxMRT, read-out: Vss; for clearance: Dose/AUC; for half-life: plasma elimination half-life; for AUC(0-inf) / AUC(0-t) / C0: LC-HRMS, non-compartmental
Procedure: The Institutional Animal Care and Use Committee of the Catholic University of Korea (approval number, CUK-IACUC-2021-004; approval date, 21 March 2021) approved the study protocol. Male ICR mice (8 weeks of age, 27.4 ± 2.3 g) were purchased from Orient Bio Inc. (Seongnam, Korea). Mice were kept in plastic cages with unlimited access to a standard mouse diet (Orient Bio) and water before the experiments. For oral administration, mice were fasted for at least 12 h but allowed free access to water.
as §1
Concentrations of β-amanitin in biological samples were evaluated following our previous methodology. The standard calibration curves for β-amanitin in mouse plasma ranged from 0.5 to 500 ng/mL and were linear, with a correlation coefficient of 0.9952. The inter- and intra-day accuracy and precision fell within the acceptance criteria (3.1–14.6% of coefficients of variation (CVs) and 92.5–115.0% of accuracy). The extraction recovery and matrix effect of this analytical method were 82.8–88.9% and 93.0–98.6%.
An aliquot (5 μL) of plasma sample was mixed with 15 μL of 4′-hydroxydiclofenac (internal standard (IS), 5 ng/mL) in methanol and vortexed for 2 min. The mixture was centrifuged at 13,000× g at 4 °C for 5 min, and the supernatant was then transferred to an autosampler vial. An aliquot (5 μL) was injected into the LC-HRMS system for analysis.
The toxicokinetic parameters of β-amanitin were analyzed by non-compartmental analyses (WinNonlin, Pharsight; Mountain View, CA, USA) (Table 1). Data were expressed as mean ± standard deviations (SD). Comparisons of data between groups were performed using one-way ANOVA or Student t-test. Values of p < 0.05 were considered statistically significant.

CYP2B6 = target: T1, CYP2B6 (Homo sapiens, UniProt P20813); test: CYP2B6 inhibition in human liver microsomes; type: in vitro ADME; conditions: ultrapooled human liver microsomes 0.2 mg/mL, 50 μM bupropion, β-amanitin 0.1–100 μM, pH 7.4, 37 °C, 15 min, LC-MS/MS, n = 3, read-out: IC50, CYP2B6 bupropion hydroxylase
T1 construct: from tissue; host or cells: ultrapooled human liver microsomes
T1 sequence (P20813 1-491): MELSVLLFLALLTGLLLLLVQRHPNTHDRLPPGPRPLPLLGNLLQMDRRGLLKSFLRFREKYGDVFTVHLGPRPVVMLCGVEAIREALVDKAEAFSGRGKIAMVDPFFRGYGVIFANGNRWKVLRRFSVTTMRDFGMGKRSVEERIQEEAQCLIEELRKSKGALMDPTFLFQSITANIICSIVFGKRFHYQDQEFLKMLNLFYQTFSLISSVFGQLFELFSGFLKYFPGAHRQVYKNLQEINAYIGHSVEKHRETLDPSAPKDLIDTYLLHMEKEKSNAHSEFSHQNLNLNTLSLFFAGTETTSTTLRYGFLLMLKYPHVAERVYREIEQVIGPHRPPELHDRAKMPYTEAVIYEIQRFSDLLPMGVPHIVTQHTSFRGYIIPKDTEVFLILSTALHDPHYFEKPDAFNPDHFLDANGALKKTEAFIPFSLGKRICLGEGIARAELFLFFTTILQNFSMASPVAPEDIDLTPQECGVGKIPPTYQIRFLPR
Procedure: β-amanitin inhibition (IC50 values) of CYP1A2, CYP2A6, CYP2B6, CYP2C8, CYP2C9, CYP2C19, CYP2D6, and CYP3A4 enzyme activities in HLMs were evaluated using LC-MS/MS and CYP substrates as previously described. Each incubation mixture was made up to a volume of 100 μL including HLMs (0.2 mg/mL), 50 mM potassium phosphate buffer (pH 7.4), 1.0 mM NADPH, 10 mM magnesium chloride, various concentrations of β-amanitin (0.1–100 μM), a cocktail of seven CYP probe substrates (50 μM phenacetin for CYP1A2, 2.5 μM coumarin for CYP2A6, 2 μM amodiaquine for CYP2C8, 10 μM diclofenac for CYP2C9, 100 μM [S]-mephenytoin for CYP2C19, 5 μM bufuralol for CYP2D6, and 2.5 μM midazolam for CYP3A4 in acetonitrile), or 50 μM bupropion for CYP2B6. The reactions were initiated with NADPH followed by incubation in a shaking water bath at 37 °C for 15 min with or without 30 min preincubation with NADPH. Reactions were stopped with 50 μL of ice-cold methanol containing ^13C2, ^15N-acetaminophen and d9-1′-hydroxybufuralol (ISs). Incubation mixtures were centrifuged at 13,000× g for 8 min at 4 °C. An aliquot (5 μL) of the supernatant from the reaction mixture was analyzed by the previous LC-MS/MS method.

[2] = plasma, iv bolus 0.2 mg/kg, n = 8
[3] = plasma, iv bolus 0.4 mg/kg, n = 6
[4] = plasma, iv bolus 0.8 mg/kg, n = 7
[5] = iv bolus 0.2 mg/kg, plasma, n = 8
[6] = iv bolus 0.4 mg/kg, plasma, n = 6
[7] = iv bolus 0.8 mg/kg, plasma, n = 7

## CC[C@H](C)[C@@H]1NC(=O)CNC(=O)[C@@H]2Cc3c([nH]c4cc(O)ccc34)[S@+]([O-])C[C@H](NC(=O)CNC1=O)C(=O)N[C@@H](CC(=O)O)C(=O)N1C[C@H](O)C[C@H]1C(=O)N[C@@H]([C@@H](C)[C@@H](O)CO)C(=O)N2 [β-amanitin]
mice; iv bolus via tail vein 0.2, 0.4 and 0.8 mg/kg
  Death or serious toxicity after intravenous bolus administration: did not cause death or serious toxicity; also recorded: did not cause toxicity
mice; oral gavage 2, 5 and 10 mg/kg
  Death or serious toxicity after oral administration: did not cause death or serious toxicity; also recorded: did not cause toxicity
[1]; iv 0.2, 0.4 and 0.8 mg/kg, plasma, range of the dose-group means
  t1/2, range over the iv doses: 18.3–33.6 min and 18.3~33.6 min
[1]; [2]
  MRT: 22.8 min
  Vd: 0.359 ± 0.0855 L/kg
  clearance: 15.3 ± 2.5 mL/min/kg
[1]; [3]
  MRT: 22.4 min
  Vd: 0.366 ± 0.061 L/kg
  clearance: 16.2 ± 2.4 mL/min/kg
[1]; [4]
  MRT: 20.7 min
  Vd: 0.39 ± 0.0771 L/kg
  clearance: 18.8 ± 6 mL/min/kg
[1]; iv bolus 0.2 mg/kg, n = 8
  half-life: 21.8 ± 8.3 min
[1]; [5]
  AUC(0-inf): 223 ng·h/mL
  AUC(0-t): 222 ng·h/mL
[1]; iv bolus 0.4 mg/kg, n = 6
  half-life: 18.3 ± 3.1 min
[1]; [6]
  AUC(0-inf): 421 ng·h/mL
  AUC(0-t): 420 ng·h/mL
[1]; iv bolus 0.8 mg/kg, n = 7
  half-life: 33.6 ± 22.4 min
[1]; [7]
  AUC(0-inf): 771 ng·h/mL
  AUC(0-t): 769 ng·h/mL
[1]; iv bolus (tail vein) 0.2 mg/kg in water, plasma, n = 8
  C0: 712 ± 182 ng/mL
[1]; iv bolus (tail vein) 0.4 mg/kg in water, plasma, n = 6
  C0: 1440 ± 324 ng/mL
[1]; iv bolus (tail vein) 0.8 mg/kg in water, plasma, n = 7
  C0: 3250 ± 904 ng/mL
CYP2B6; with 30 min NADPH preincubation
  IC50: 34.8 µM
CYP2B6; without NADPH preincubation
  IC50: 38 µM
